Reference: patent US20250101485A1, “METHODS OF PRODUCING C[…] ACID WHEY” (priority 2022, published 2025)
“Also recorded” adds a separate entry of the source.

B1: Y27R: variant of the R domain (lycopene cyclase) of CarRP with the substitution Y27R (protein)
chain: MLLTYMEVHLYYTLPVLGVLSWLSRPRYTATDALKFKFLTLVAFTTASAWDNYIVYHKAWSYCPTCVTAVIGYVPLEEYMFFIIMTLLTVAFTNLVMRWHLHSFFIRPETPVMQSVLVRLVPITALLITAYKAWHLAVPGKPLFYGSCILWYACPVLALLWFGAGEYMMRRPLAVLVSIALPTLFLCWVDVVAIGAGTWDISLATSTGKFVVPHLPVEEFMFFALINTVLVFGTCAI

How the values were obtained:
lycopene cyclase (CarRP) [1] = biological target: T1, lycopene cyclase (CarRP) (Mucor circinelloides f. lusitanicus, UniProt Q9UUQ6); experiment: In vitro enzymatic assay of lycopene cyclase in yeast microsomes; assay type: biochemical; conditions: wild type CarRP (or CarR); lycopene 50˜350 mol/L as substrate, 30° C., 16 h
T1 construct: made in house; host or cells: Yarrowia lipolytica (po1f-derived strains); crude microsomal fraction
T1 sequence (Q9UUQ6 whole entry): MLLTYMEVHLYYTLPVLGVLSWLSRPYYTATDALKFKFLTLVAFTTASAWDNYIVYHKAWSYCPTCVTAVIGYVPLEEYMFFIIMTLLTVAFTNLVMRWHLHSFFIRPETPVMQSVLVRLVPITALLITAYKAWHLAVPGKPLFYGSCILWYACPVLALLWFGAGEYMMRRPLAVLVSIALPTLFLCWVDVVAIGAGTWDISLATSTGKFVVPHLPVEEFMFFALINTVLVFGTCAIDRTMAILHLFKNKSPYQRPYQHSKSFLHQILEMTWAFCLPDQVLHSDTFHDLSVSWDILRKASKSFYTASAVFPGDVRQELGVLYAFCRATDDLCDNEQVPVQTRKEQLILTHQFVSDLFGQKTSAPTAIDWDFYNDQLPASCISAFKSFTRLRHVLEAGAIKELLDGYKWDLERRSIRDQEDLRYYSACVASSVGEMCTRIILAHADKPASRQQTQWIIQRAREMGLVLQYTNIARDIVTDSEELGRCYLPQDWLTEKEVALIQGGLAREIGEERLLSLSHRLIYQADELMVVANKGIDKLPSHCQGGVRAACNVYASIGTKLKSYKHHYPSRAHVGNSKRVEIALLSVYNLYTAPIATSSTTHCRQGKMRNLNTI
Experimental: (§1) To test this hypothesis, possible correlations between lycopene cyclase activity and lycopene concentration were examined using an in vitro enzymatic assay that employed a yeast microsomal system, as CarRP is predicted to be a membrane protein with six transmembrane helices (FIG. 26). […] This supported the hypothesis that lycopene cyclase was substrate-inhibited, thus creating a major bottleneck in carotenoid biosynthesis.
(§2) Yeast microsomes for in vitro enzymatic assays were prepared as described previously (Pompon et al., 1996). Briefly, strains harboring wild type or mutated CarRP were grown overnight in YNB media at 30° C. and then inoculated into 200 mL YNB media to an initial OD600 of 0.1. After 24 h cultivation, cells were collected by centrifugation at 4,000 rpm for 10 min. Resuspension of the cells in TEK buffer (50 mM Tris-HCl, pH 6.8, 1 mM EDTA, 0.1 M KCl) followed, and the solution was kept at room temperature for 5 min. Afterwards, the cells were recovered by centrifugation, washed in TES buffer (50 mM Tris-HCl, pH 6.8, 1 mM EDTA, 0.6 M sorbitol), resuspended in TESM buffer (50 mM Tris-HCl, pH 6.8, 1 mM EDTA, 0.6 M sorbitol, 14 mM 2-mercaptoethanol), and left at room temperature for 10 min. […] The solution was vortex for 10 min, and the organic phase was collected by centrifugation and analyzed by HPLC.

lycopene cyclase (CarRP) [2] = biological target: T2, lycopene cyclase (CarRP) (Mucor circinelloides f. lusitanicus, UniProt Q9UUQ6, Y27R); experiment: as above; assay type: biochemical; conditions: CarRP (or CarR) variant compared to wild type; relative catalytic activity, FIG. 16D
T2 construct: made in house; host or cells: Yarrowia lipolytica (po1f-derived strains); crude microsomal fraction
T2 sequence (Q9UUQ6 whole entry Y27R): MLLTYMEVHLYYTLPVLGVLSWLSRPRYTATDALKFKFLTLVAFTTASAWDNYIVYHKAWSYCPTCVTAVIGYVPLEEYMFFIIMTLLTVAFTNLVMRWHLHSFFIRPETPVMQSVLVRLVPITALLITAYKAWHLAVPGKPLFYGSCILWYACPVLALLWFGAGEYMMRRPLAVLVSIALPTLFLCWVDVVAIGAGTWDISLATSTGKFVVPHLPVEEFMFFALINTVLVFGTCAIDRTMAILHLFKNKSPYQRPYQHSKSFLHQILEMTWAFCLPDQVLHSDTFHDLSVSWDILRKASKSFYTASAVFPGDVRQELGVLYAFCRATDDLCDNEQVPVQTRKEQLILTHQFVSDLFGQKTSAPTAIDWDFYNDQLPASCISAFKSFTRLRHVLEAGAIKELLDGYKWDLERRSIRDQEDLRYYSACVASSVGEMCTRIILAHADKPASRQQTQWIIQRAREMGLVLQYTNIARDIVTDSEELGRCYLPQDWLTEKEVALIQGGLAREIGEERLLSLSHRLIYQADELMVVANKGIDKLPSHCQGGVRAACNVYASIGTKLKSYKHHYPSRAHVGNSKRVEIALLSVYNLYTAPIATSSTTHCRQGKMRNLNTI
Experimental: as §1, §2

Molecule	lycopene cyclase activity with respect to lycopene concentration (substrate inhibition) (lycopene cyclase (CarRP) [1])	substrate inhibition of lycopene cyclase variant by lycopene (lycopene cyclase (CarRP) [2])
CC(C)=CCC/C(C)=C/C=C/C(C)=C/C=C/C(C)=C/C=C/C=C(C)/C=C/C=C(C)/C=C/C=C(\C)CCC=C(C)C [lycopene]	bi-phasic; also recorded: inhibited its downstream enzyme, lycopene cyclase, through substrate inhibition	
B1		complete loss of substrate inhibition without reduction in enzyme activity; also recorded: completely free of substrate inhibition
